From patent US8410152B2 (Max-Planck-Gesellschaft zur Forderung der Wissenschaften e. …, priority 2006, dated 2013)
Read-outs that look alike come from different tables or passages of the source.

Legend:
N2a/K18ΔK280 cells = assay: Tau aggregation and inhibition assay in cells (ThS staining); assay type: cell-based; conditions: 120 h, read-out: Inhibition in cells
Method: Selection of an N2a, Tet-On, G418-resistant cell line: N2a cells were cotransfected with both the pUHD172-1 plasmid (encoding the rtTA, obtained from H. Bujard, Heidelberg) and pEU-1 plasmid (encoding G418 resistance, a derivative of pRc/CMV, Invitrogen) (ratio 20:1; 1 μg/well of 6-well plates) using the DOTAP transfection reagent (Roche, Basel, CH). The cells were cultured in Eagle's Minimum Essential Medium (MEM) supplemented with 10% defined fetal bovine serum and subjected to G418 (600 μg/ml) and selection. The cells were fed with fresh media every 4 days for 3-4 weeks when single colonies appeared. Clones were tested for the induction level by transient transfection of pUHG 16-3 plasmid and the induction of β-galactosidase was measured.
Generation of inducible Tet-On cell lines: The DNA fragments encoding the appropriate tau constructs (K18WT, K18ΔK280, K18/ΔK280/PP) were inserted into the bidirectional vector pBI-5 between ClaI and SalI restriction sites (pBI-5 is an unpublished derivative of pBI-2, Baron et al., 1995). The pBI-5/K18-derived plasmids with pX343 (plasmid encoding the hygromycin resistance) were used for cotransfection of N2a/Tet-On, G418-resistant cells with the aid of DOTAP (20:1 plasmid ratio; 1 μg/well of 6-well plates). The cells were seeded at 4×10^5 cells per well. On the following day cells were transferred to 100-mm dishes and selected with 100 μg/ml of hygromycin and 600 μg/ml of G418. Clonal cell lines were screened for the inducible expression of K18 derivatives by measuring luciferase activity with the luciferase assay and immunofluorescence for tau protein with the polyclonal pan-tau antibody K9JA.
Induction of K18-derivatives in Tet-On N2a cells: The inducible N2a/K18-derivatives cells were cultured in MEM medium supplemented with 10% fetal calf serum, 2 mM glutamine and 0.1% nonessential amino acids. The expression of K18 constructs was induced by adding 1 μg doxycyclin (Dox) per 1 ml medium. The induction was continued for 7-11 days, the medium was changed 3 times (always complemented with doxycyclin). For tau solubility assays the cells were collected by pelleting during centrifugation at 1000×g for 5 min. The levels and solubility of tau K18/ΔK280 were determined following Greenberg and Davies (1990). The cells were homogenized (DIAX900, Heidolph, Schwabach, Germany) in 10 vol (w/v) of buffer consisting of 10 mM Tris-HCl (pH 7.4), 0.8 M NaCl, 1 mM EGTA, and 10% sucrose. The homogenate was spun for 20 min at 20000×g, and the supernatant was retained. The pellet was re-homogenized in 5 vol of homogenization buffer and re-centrifuged. Both supernatants were combined, brought to 1% N-laurylsarkosinate (w/v) and incubated for 1 hr at room temperature while shaking, followed by centrifugation at 100 000×g for 1 hr. The sarkosyl-insoluble pellets were resuspended in 50 mM Tris-HCl (pH 7.4), 0.5 ml per 1 g of starting material. The supernatant and sarkosyl-insoluble pellet samples were analyzed by Western blotting. The amount of material loaded for supernatant and sarkosyl-insoluble pellet represented about 0.5% and 15% of the total material present in the supernatant and pellet respectively (the ratio between supernatant and sarkosyl insoluble pellet was always 1:30). For quantification of tau levels in each fraction, the Western blots were probed with pan-tau antibody K9JA and analyzed by densitometry (LAS 3000 and AIDA software, Raytest, Straubenhardt, Germany).
Quantitation of tau aggregation in cells by Thioflavin S (ThS) staining: Tet-On inducible undifferentiated N2a cells were treated with 1 μg/ml doxycyclin for 5, 7 or 9 days in a culture dish. After that the cells were trypsinized and transferred to coverslips and incubated overnight. The cells on the coverslips were fixed with 4% paraformaldehyde in PBS for 15 min, then permeabilized with 80% MeOH for 6 min at −20° C., and incubated with 0.1% Thioflavin S for 5 min and washed three times in ethanol (50%). […]

tau construct K19 = tau construct K19 (Homo sapiens, UniProt P10636); assay: Thioflavine S (ThS) assay for aggregation of tau; assay type: biochemical
tau construct K19, sequence (P10636 with tags, fused parts or gaps isoform P10636-2 limits assumed): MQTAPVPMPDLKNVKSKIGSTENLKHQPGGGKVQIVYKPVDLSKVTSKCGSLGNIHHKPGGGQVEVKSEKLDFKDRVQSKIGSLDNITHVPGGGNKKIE
Method: Thioflavine S (ThS) Assay for aggregation of tau: 10 μM of the tau construct K19 were incubated with compounds in a concentration range from 1 nM up to 200 μM in the presence of 2.5 μM heparin in 50 mM NH4Ac buffer over night at 37° C. After addition of 20 μM ThS the signal was measured at 521 nm (emission) at an excitation wavelength of 440 nm. The results of this assay are presented in the IC50 column and DC50 column of Table 1 below.

uninduced N2A cells = assay type: cell-based; conditions: cell death as percent of LDH released into medium vs total LDH, compound 10 μM
Method: Neurotoxicity assay: Neurotoxicity was assessed using an LDH (lactate dehydrogenase) assay kit (Roche, Mannheim, Germany) according to the manufacturer's specifications. In the viability assay the aggregation inhibitor compound was added at a final concentration of 10 μM to uninduced N2A cells. The activity of LDH was measured spectrophotometrically at 492 nm. Cell death was calculated as percent of LDH released into medium, compared to total LDH obtained after total cell lysis.

[1] = 10 μM tau construct K19, 2.5 μM heparin, ThS fluorescence
[2] = N2a/K18ΔK280 cells, compound 10 μM with doxycyclin, 5 days, ThS-positive cells scored
[3] = 10 μM tau construct K19, 2.5 μM heparin, ThS fluorescence, read-out: DC50
[4] = 10 μM tau construct K19, 2.5 μM heparin, over night at 37° C., ThS fluorescence, read-out: ID50 (the source's name)

Structure (SMILES) | DC50 (tau construct K19; [3]) [µM] | IC50 (tau construct K19; [4]) [µM] | inhibition at 10 µM (N2a/K18ΔK280 cells) [%] | IC50 (tau construct K19) [µM] | DC50 (tau construct K19; [1]) [µM] | LDH (uninduced N2A cells) [%] | inhibition at 10 µM (N2a/K18ΔK280 cells; [2]) [%]
O=C(NNc1nc2c(s1)Cc1ccccc1-2)c1cc2ccccc2[nH]1 [Comp. 52, N′-8H-indeno[1,2-d][1,3]thiazol-2-yl-1H-indole-2-carbohydrazide] |  |  | 53.2 | 49.4 | 89.1 | −9.6 | 
N#Cc1ccc(-c2csc(NNC(=O)c3cc4ccccc4[nH]3)n2)cc1 [Comp. 57, N′-[4-(4-cyanophenyl)-1,3-thiazol-2-yl]-1H-indole-2-carbohydrazide] |  |  | 49.3 | > 200 | > 200 | 2.7 | 
O=C(NNc1nc(C2C3CC4CC(C3)CC2C4)cs1)c1cc2ccccc2[nH]1 (centres unmarked) [Comp. 54, N′-[4-(2-adamantyl)-1,3-thiazol-2-yl]-1H-indole-2-carbohydrazide] |  |  | 56.6 | > 200 | > 200 | −2.1 | 
O=C(NNc1nc(-c2ccc(N3CCCC3)cc2)cs1)c1cccnc1 [Comp. 10, N′-[4-(4-pyrrolidin-1-ylphenyl)-1,3-thiazol-2-yl]nicotinohydrazide] | 1.4 | 2 |  |  |  | 12.5 | 62.5
O=C(NNc1nc(-c2ccc3ccccc3c2)cs1)c1ccc(C(F)(F)F)cc1 [Comp. 50, N′-[4-(2-naphthyl)-1,3-thiazol-2-yl]-4-(trifluoromethyl)benzohydrazide] |  |  |  |  |  | −7.6 | 52.6
COc1cc(-c2csc(NNC(=O)c3cc4ccccc4[nH]3)n2)cc(OC)c1O [Comp. 53, N′-[4-(4-hydroxy-3,5-dimethoxyphenyl)-1,3-thiazol-2-yl]-1H-indole-2-carbohydrazide] |  |  | 49.9 | 171 | > 200 | −7.3 | 
O=C(NNc1nc(-c2ccc(N3CCCC3)cc2)cs1)c1ccc(F)cc1 [Comp. 15, 4-fluoro-N′-[4-(4-pyrrolidin-1-ylphenyl)-1,3-thiazol-2-yl]benzohydrazide] | 0.7 | 4.9 |  |  |  | −1.1 | 
O=C(NNc1nc(-c2cc3ccccc3oc2=O)cs1)c1cccnc1 [Comp. 2, N′-(4-(2-Oxo-2H-chromen-3-yl)thiazol-2-yl)nicotinohydrazide] | 11.1 | 23.2 |  |  |  | 15.4 | 
O=C(NNc1nc(-c2cc3ccccc3oc2=O)cs1)c1ccc2c(c1)OCO2 [Comp. 33, N′-[4-(2-oxo-2H-chromen-3-yl)-1,3-thiazol-2-yl]-1,3-benzodioxole-5-carbohydrazide] | > 200 | > 200 |  |  |  | 2.0 | 
O=C(NNc1nc(-c2ccc(Br)cc2)cs1)c1cccnc1 [Comp. 12, N′-[4-(4-bromophenyl)-1,3-thiazol-2-yl]nicotinohydrazide] | 0.5 | 3.3 |  |  |  | 13.6 | 
O=C(NNc1nc(-c2ccc([N+](=O)[O-])cc2)cs1)c1ccco1 [Comp. 17, N′-[4-(4-nitrophenyl)-1,3-thiazol-2-yl]-2-furohydrazide] | 0.8 | 6.3 |  |  |  | 4.9 | 

Second part, led by results:

DC50 (tau construct K19; [3]) [µM] | IC50 (tau construct K19; [4]) [µM] | Structure (SMILES) | inhibition at 10 µM (N2a/K18ΔK280 cells) [%] | IC50 (tau construct K19) [µM] | DC50 (tau construct K19; [1]) [µM] | LDH (uninduced N2A cells) [%] | inhibition at 10 µM (N2a/K18ΔK280 cells; [2]) [%]
> 200 | 112 | COc1ccc(C(=O)NNc2nc(C3C4CC5CC(C4)CC3C5)cs2)cc1 (centres unmarked) [Comp. 65, N′-[4-(2-adamantyl)-1,3-thiazol-2-yl]-4-mathoxybenzohydrazide] |  |  |  | 39.4 | 42.1
> 200 | 189 | COc1cc(-c2csc(NNC(=O)c3ccc(C(F)(F)F)cc3)n2)cc(OC)c1O [Comp. 51, N′-[4-(4-hydroxy-3,5-dimethoxyphenyl)-1,3-thiazol-2-yl]-4-(trifluoromethyl)benzohydrazide] |  |  |  | −10.4 | 42.6
16.5 | 33.6 | O=C(NNc1nc(-c2ccccc2)cs1)c1ccc(F)cc1 [Comp. 24, 4-fluoro-N′-(4-phenyl-1,3-thiazol-2-yl)benzohydrazide] |  |  |  | 5.5 | 
> 200 | 146 | O=C(NNc1nc(-c2ccc(Br)cc2)cs1)Nc1ccccc1 [Comp. 30, 2-[4-(4-bromophenyl)-1,3-thiazol-2-yl]-N-phenylhydrazinecarboxamide] |  |  |  | 6.4 | 
20.2 | 18 | O=C(NNc1nc(-c2ccc(Br)cc2)cs1)c1ccncc1 [Comp. 21, N′-[4-(4-bromophenyl)-1,3-thiazol-2-yl]isonicotinohydrazide] |  |  |  | 1.5 | 
10.8 | 7.7 | Cc1sc(NNC(=O)c2ccc(Cl)cc2)nc1-c1cccc([N+](=O)[O-])c1 [Comp. 19, 4-chloro-N′-[5-methyl-4-(3-nitrophenyl)-1,3-thiazol-2-yl]benzohydrazide] |  |  |  | 47.4 | 
 | > 200 | Cc1nc(NNC(=O)c2ccc(-c3ccccc3)cc2)sc1-c1ccc(Br)cc1 [Comp. 64, N′-[5-(4-bromophenyl)-4-methyl-1,3-thiazol-2-yl]-1,1′-biphenyl-4-carbohydrazide] |  |  |  | 8.9 | 
> 200 | > 200 | O=C(NNc1nc(-c2ccc(Br)cc2)cs1)c1ccc(F)cc1 [Comp. 40, N′-[4-(4-bromophenyl)-1,3-thiazol-2-yl]-4-fluorobenzohydrazide] |  |  |  | 4.9 | 
> 200 | 28.3 | COc1cccc(-c2csc(NNC(=O)c3cccs3)n2)c1 [Comp. 23, N′-[4-(3-methoxyphenyl)-1,3-thiazol-2-yl]thiophene-2-carbohydrazide] |  |  |  | 25.3 | 
> 200 | 35.5 | O=C(NNc1nc(-c2cccc([N+](=O)[O-])c2)cs1)c1ccccc1Cl [Comp. 25, 2-chloro-N′-[4-(3-nitrophenyl)-1,3-thiazol-2-yl]benzohydrazide] |  |  |  | 43.0 | 
35.5 | 25.3 | O=C(NNc1nc(-c2ccccc2)cs1)c1cccs1 [Comp. 22, N′-(4-phenyl-1,3-thiazol-2-yl)thiophene-2-carbohydrazide] |  |  |  | 14.8 | 
21.3 | 47.2 | O=C(NNc1nc(-c2cc3ccccc3o2)cs1)c1ccc(Cl)cc1 [Comp. 26, N′-[4-(1-benzofuran-2-yl)-1,3-thiazol-2-yl]-4-chlorobenzohydrazide] |  |  |  | −0.6 | 
